From patent US4318826A, “Carbonylation catalysts” (Exxon Research & Engineering Co., priority 1980, dated 1982)
Like-named read-outs stand apart in the source and are kept apart here.

Legend:
[1] = Example 11: hydroformylation of propylene; conditions: 133 °C.
Experimental: Reaction Conditions: 1000 psig Total pressure, CO/H2 (50/50) mixture), 60 ml benzene as solvent, 0.30-0.45 moles propylene, 0.5 mmoles catalyst (based on Rh).

[2] = Example 7: effect of cocatalyst on production of methyl acetate from CH3 OH; conditions: 175° C.
[3] = Table III: effect of cocatalyst on carbonylation of methanol to methyl acetate
[4] = Example 8 / Table II: effect of catalyst on carbonylation of methanol to methyl acetate; conditions: CH3 I 8.0 mmole, 175° C., 1000 psi; for % Selectivity: additional product dimethyl ether
[5] = Experimental: This conversion is run at elevated pressures, preferably from 1,500 to 3,000 psi. Reaction temperatures will range from 50° C. to 200° C., with a range of 100° C. to 150° C. preferred. Ratio of H2 to CO used will vary with reaction conditions; preferably a 1 to 1 ratio is maintained. The catalyst concentration will range from 0.01 to 20% based on the weight feed, with 0.05 to 10 % preferred.
30 ml. of hexene-1, 20 ml. of benzene, and 0.3 gm. […] The bomb was heated to 140° C. and held until the reaction was complete.

[6] = cocatalyst 8.0 mmole, 1000 psi CO, CH3 I 18 hours, CH3 CH2 I 19 hours, C6 H5 I 90 hours
[7] = cocatalyst 8.0 mmole, 175° C., 1000 psi, CH3 I 18 hr, CH3 CH2 I 19 hr, C6 H5 I 90 hr
[8] = cocatalyst 8.0 mmole, 3.25 hr, 175° C., 4000 psi CO
[9] = cocatalyst 16.0 mmole, 4.25 hr, 175° C., 4000 psi CO
[10] = catalyst 1.0 mmole, 18-21 hours
[11] = catalyst 2.0 mmole, 16-19 hours (Co(C5 H7 O2)3: 67)
[12] = cocatalyst 4.0 mmole, 4000 psi CO, 4 hours

O=[C]=[Rh]([Cl])([PH](c1ccccc1)(c1ccccc1)c1ccccc1)[PH](c1ccccc1)(c1ccccc1)c1ccccc1 [((C6 H5)3 P)2 Rh(CO)Cl]
(%) n-C4 H8 O (percent straight chain isomer) ([1]; 1000 psig CO/H2 50/50): 56%
k (pseudo 1st order reaction rate constant) ([1]; 1000 psig CO/H2 50/50): 0.0744 min⁻¹
t1/2 ([1]; t1/2 = ln 2/k): 9.32 min

Ic1ccccc1 [C6 H5 I]
methyl acetate produced (head is a drawing) [2, 6]: 22.3 mL
% Conversion to Methyl Acetate [3, 7]: 25%
% Selectivity to Methyl Acetate [3, 7]: 52%

CBr [CH3 Br]
promotional effect as cocatalyst [3]: inventive

CCI [CH3 CH2 I]
methyl acetate produced (head is a drawing) [2, 6]: 17.5 mL
% Conversion to Methyl Acetate [3, 7]: 20%
% Selectivity to Methyl Acetate [3, 7]: 85%

CI [CH3 I, methyl iodide]
methyl acetate produced (head is a drawing) [2, 6]: 21.4 mL
methyl acetate produced (head is a drawing) ([2]; cocatalyst 8.0 mmole, 4000 psi CO, 4 hours): 29.6 mL
methyl acetate produced (head is a drawing) ([2]; cocatalyst 16.0 mmole, 4000 psi CO, 4 hours): 19.8 mL
% Conversion to Methyl Acetate [3, 7]: 24%
% Selectivity to Methyl Acetate [3, 7]: 85%
% Conversion to Methyl Acetate [3, 8]: 29%
% Selectivity to Methyl Acetate [3, 8]: 97%
% Conversion to Methyl Acetate [3, 9]: 25%
% Selectivity to Methyl Acetate [3, 9]: 74%

[C-]#[O+].[C-]#[O+].[C-]#[O+].[C-]#[O+].[C-]#[O+].[C-]#[O+].[C-]#[O+].[C-]#[O+].[Co].[Co] [Co2 (CO)8]
% Conversion [4, 10]: 3.5%
% Selectivity [4, 10]: 6.4%

CC(=O)[CH-]C(C)=O.CC(=O)[CH-]C(C)=O.CC(=O)[CH-]C(C)=O.[Co+3] [Co(C5 H7 O2)3]
% Conversion [4, 11]: 16%
% Selectivity [4, 11]: 23%

II [Example I2, iodine]
methyl acetate produced (head is a drawing) ([2]; cocatalyst 2.0 mmole, 4000 psi CO, 4 hours): 5.2 mL

I [HI, hydrogen iodide]
methyl acetate produced (head is a drawing) [2, 12]: 6.6 mL
% Conversion to Methyl Acetate [3]: 8
% Selectivity to Methyl Acetate [3]: 47

[I-].[Li+] [LiI]
methyl acetate produced (head is a drawing) [2, 12]: 1 mL
% Conversion to Methyl Acetate [3]: 0.6
% Selectivity to Methyl Acetate [3]: 100

tetrakis tetrahydrofuran adduct of a magnesium-dicobalt hexacarbonyl bismethyldiphenylphosphine complex [[C4 H8 O]4 Mg[Co(CO)3 PCH3 (C6 H5)2]2]
hexene-1 converted to C7 aldehydes and C7 alcohols ([5]; 1500 psi, H2 :CO 1:1, 140° C.): 99%
reacted product that was an aldehyde ([5]; 1500 psi, H2 :CO 1:1, 140° C.): 87%
conversion of 1-hexene to heptaldehydes ([5]; description): > 99%
selectivity in conversion of 1-hexene to heptaldehydes ([5]; description): 87%
